Assay results as given in the supplement of paper PMC10307832.

Legend:
Assay in all cases: relative viability (nuclei count vs DMSO), 5 days (fraction); higher = more cells survive
Vemurafenib + OSI-027 = compound: CCCS(=O)(=O)Nc1ccc(F)c(C(=O)c2c[nH]c3ncc(-c4ccc(Cl)cc4)cc23)c1F [Vemurafenib] + COc1cccc2cc(-c3nc([C@H]4CC[C@H](C(=O)O)CC4)n4ncnc(N)c34)[nH]c12 [OSI-027] (partner 0.5 µM)
Summary of the method: (§1)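 Lung cancer cell lines in 1536-well plates were dosed by pin tool the day after seeding, either with one drug alone or with a fixed anchor-drug dose plus five library-drug doses (not always all listed) in √10 steps. After 5 days, cells were fixed and their nuclei stained in one step (final 0.05% Triton X-100, 1% formaldehyde, 1 ug/ml Hoechst), then counted on 4× images. Relative viability is the nuclei count in treated wells divided by that in vehicle wells. Values are medians of duplicate plates.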

Alpelisib + Tozasertib = compound: Cc1nc(NC(=O)N2CCC[C@H]2C(N)=O)sc1-c1ccnc(C(C)(C)C(F)(F)F)c1 [Alpelisib] + Cc1cc(Nc2cc(N3CCN(C)CC3)nc(Sc3ccc(NC(=O)C4CC4)cc3)n2)n[nH]1 [Tozasertib] (partner 0.1 µM)
Summary of the method: as §1

Alpelisib + Bortezomib = compound: Cc1nc(NC(=O)N2CCC[C@H]2C(N)=O)sc1-c1ccnc(C(C)(C)C(F)(F)F)c1 [Alpelisib] + CC(C)C[C@H](NC(=O)[C@H](Cc1ccccc1)NC(=O)c1cnccn1)B(O)O [Bortezomib] (partner 0.002 µM)
Summary of the method: as §1

Alpelisib + Palbociclib = compound: Cc1nc(NC(=O)N2CCC[C@H]2C(N)=O)sc1-c1ccnc(C(C)(C)C(F)(F)F)c1 [Alpelisib] + CC(=O)c1c(C)c2cnc(Nc3ccc(N4CCNCC4)cn3)nc2n(C2CCCC2)c1=O [Palbociclib] (partner 0.5 µM)
Summary of the method: as §1

Cell Line	relative viability (Vemurafenib + OSI-027; first compound 0.03162 µM)	relative viability (Vemurafenib + OSI-027; first compound 0.1 µM)	relative viability (Vemurafenib + OSI-027; first compound 0.3162 µM)	relative viability (Vemurafenib + OSI-027; first compound 1 µM)	relative viability (Alpelisib + Tozasertib; first compound 0.04 µM)	relative viability (Alpelisib + Tozasertib; first compound 0.1265 µM)	relative viability (Alpelisib + Tozasertib; first compound 0.4 µM)	relative viability (Alpelisib + Tozasertib; first compound 1.265 µM)	relative viability (Alpelisib + Tozasertib; first compound 4 µM)	relative viability (Alpelisib + Bortezomib; first compound 0.04 µM)	relative viability (Alpelisib + Bortezomib; first compound 0.1265 µM)	relative viability (Alpelisib + Bortezomib; first compound 0.4 µM)	relative viability (Alpelisib + Bortezomib; first compound 1.265 µM)	relative viability (Alpelisib + Bortezomib; first compound 4 µM)	relative viability (Alpelisib + Palbociclib; first compound 0.04 µM)	relative viability (Alpelisib + Palbociclib; first compound 0.1265 µM)	relative viability (Alpelisib + Palbociclib; first compound 0.4 µM)	relative viability (Alpelisib + Palbociclib; first compound 1.265 µM)	relative viability (Alpelisib + Palbociclib; first compound 4 µM)
NCI-H1975	0.647	0.631	0.4	0.564	0.726	0.655	0.755	0.542	0.29	0.419	0.318	0.355	0.238	0.189	0.628	0.552	0.597	0.323	0.319
A-427	0.488	0.404	0.453	0.466	0.225	0.196	0.244	0.198	0.194	0.889	0.843	0.978	0.849	0.893	0.5	0.507	0.521	0.493	0.437
SK-LU-1	0.315	0.342	0.245	0.269	0.347	0.289	0.372	0.256	0.216	1.36	0.723	1.01	0.805	0.934	0.398	0.372	0.386	0.326	0.377
PC-3 [JPC-3]	0.698	–	0.724	0.731	0.898	0.873	0.968	0.84	0.806	0.873	0.901	0.766	0.768	0.66	0.591	0.556	0.581	0.521	0.559
ChaGo-K-1	0.535	0.549	0.419	0.487	0.202	0.202	0.211	0.194	0.197	0.921	–	1.07	0.839	0.791	0.958	0.965	1	0.747	0.584
NCI-H2023	0.316	0.293	0.408	0.316	0.36	0.35	0.348	0.215	0.166	0.926	0.952	0.942	0.57	0.601	0.312	0.309	0.326	0.258	0.223
LXF-289	0.758	0.668	0.622	0.772	0.21	0.182	0.249	0.134	0.128	1	1.03	1.07	0.902	1.04	0.55	0.562	0.653	0.534	0.604
EBC-1	–	–	–	–	–	–	–	–	–	0.574	0.559	0.584	0.428	0.423	–	–	–	–	–
LOU-NH91	0.72	–	–	0.726	0.689	0.643	0.656	0.563	0.443	0.478	0.457	0.51	0.537	0.474	0.586	0.511	0.547	0.511	0.496
Calu-6	–	–	–	–	–	–	–	–	–	0.952	0.827	1.1	0.852	1.03	–	–	–	–	–
SW 900	0.527	0.545	0.535	0.433	0.734	0.5	0.88	0.571	0.358	–	–	–	–	–	0.536	–	0.706	0.483	0.49
NCI-H1563	0.693	0.757	0.734	0.723	–	–	–	–	–	0.807	0.85	0.816	0.687	0.803	–	–	–	–	–
NCI-H2170	0.67	0.194	0.686	0.7	0.637	0.727	0.771	0.625	0.298	–	–	–	–	–	0.351	0.337	0.36	0.246	0.21
NCI-H1792	0.705	0.616	–	0.704	–	–	–	–	–	0.927	0.888	1.05	0.851	0.315	0.631	0.62	0.658	0.508	0.321
NCI-H522	0.778	0.635	0.638	0.697	0.519	0.558	0.527	0.47	0.37	–	–	–	–	–	0.993	0.752	0.87	0.944	0.657
SK-MES-1	0.56	0.456	0.548	0.444	0.937	0.901	1.03	0.745	0.89	–	–	–	–	–	0.361	0.307	0.313	0.254	0.3
NCI-H1623	0.405	–	0.521	0.419	0.446	0.338	0.388	0.347	0.29	–	–	–	–	–	–	–	–	–	–
NCI-H358	0.7	0.47	0.928	0.882	0.111	0.114	0.116	0.0852	0.0831	–	–	–	–	–	0.118	0.104	0.139	0.103	0.103
NCI-H1648	0.261	–	0.335	0.259	–	0.68	0.607	0.27	0.22	–	–	–	–	–	0.259	0.304	0.241	0.234	0.237
NCI-H1299	–	–	–	–	–	–	–	–	–	1.05	1.08	1.03	1.02	0.966	–	–	–	–	–
NCI-H1703	–	–	–	–	–	–	–	–	–	0.348	0.208	0.231	0.223	0.234	–	–	–	–	–
NCI-H1944	0.395	0.285	0.336	0.352	0.251	0.226	0.267	0.218	0.171	–	–	–	–	–	0.303	0.302	0.345	0.241	0.221
NCI-H1395	0.606	0.651	–	0.659	0.823	0.695	0.743	0.616	0.735	–	–	–	–	–	0.634	0.651	0.649	0.475	0.589
NCI-H596	0.686	0.723	0.577	0.492	0.859	0.893	0.86	0.56	0.374	1.17	0.801	1.15	0.666	0.44	–	–	–	–	–
